# Experimental data from US8871280B1, “Compositions and methods for treating fungal activity in plants or soil” (The United States of America, as represented by the …, priority 2011, dated 2014).
# Legend:
# Rhizoctonia solani [1] = assay: Poison food technique (contact action), mycelial growth inhibition in PDA; type: cell-based, Rhizoctonia solani AG-4, isolate Rs 23A; details: for PoisonB1 % inhibition: poison bed experiment 1; for PoisonB2 % inhibition: poison bed experiment 2
# Description: (§1) Fungal isolate and preparation of inoculum: Rhizoctonia solani AG-4, isolate Rs 23A is a highly virulent pathogenic isolate which infects many vegetables, ornamentals and turfgrasses (Lewis, J. A., and G. C. Papavizas, Soil Biology and Biochemistry, 9:195-201 (1987)). The fungus was grown in potato dextrose agar (PDA) plates and fungal plugs from the freshly growing mycelium were mixed with moist sterilized cracked wheat in a 2 L flask for 15 days in dark at 22° C. (Lakshman, D. K., et al., Proceedings of the National Academy of Science, USA, 95: 6425-6429 (1998)). The infested wheat was air dried in a sterile hood for 3 days, blended in a homogenizer and sieved through a mesh and stored at 2° C. before soil inoculation. A dose response of the inocula was carried out by thoroughly mixing using 0.25, 0.5, 0.75, 1.0, 1.25 and 1.50 g inoculums per Kg dry weight potting soil plus sterile water to maintain 25-30% moisture and incubating at room temperature for two weeks before sowing cucumber (cv muncher) seeds with the infested soil. The percent germination and post-emergence damping off of cucumber seedlings were recorded. The lowest inoculums dose that induced 100% postemergence damping off was estimated to be 1 to 1.25 g/Kg soil for inocula prepared over the span of the experiments. For soil fumigation with plant extracts (PEs), each time the minimum inoculum dose giving rise to 100% damping off was used.
# In vitro bioassays: Two in vitro bioassay methods were used to investigate the mycelial growth inhibitory potentials of PEs. In the poison food technique, test chemical/plant extract was mixed at concentrations of 15, 30, 45, 60, 75, and 150 μl per 20 ml autoclaved PDA at 50° C., poured on three sterile disposable plastic plates (100×15 mm, Fisherbrand) at 20 ml/plate and cooled to room temperature to solidify (Dhingra, O.D., and J. B. Sinclair, 1995, Basic Plant Pathology Methods, 2nd Edition, Lewis Publishers, Boca Raton and London). […] Each plate was seeded in the center with a 5 mm diameter agar disk of the freshly grown Rhizoctonia pathogen, mycelial side facing the medium, and sealed with stretched Parafilm® M (Fisher Scientific). The plates were incubated in the dark at room temperature and when the pathogen reached to the edge of the plates in the control treatment (soybean oil), radial measurement of fungal growth in plates treated with PEs were recorded by taking three measurements from each plate. The experiment was repeated one more time. The percent mycelial growth inhibition (MGI) due to PE was calculated using the following formula: […] where dc=Avg. radial growth in mm of pathogen in control plate; dt=avg. radial growth in mm of pathogen in treated plate.
# Rhizoctonia solani [2] = assay: Greenhouse suppression of damping off of cucumber seedlings in R. solani infested soil amended with plant extract; type: in vivo, Rhizoctonia solani AG-4, isolate Rs 23A
# Rhizoctonia solani [3] = assay: Fungicidal vs fungistatic potential (regrowth of mycelial plugs on fresh PDA, 7 days); type: cell-based, Rhizoctonia solani AG-4, isolate Rs 23A
# Description: The fungicidal and fungistatic potential of the PEs were determined by the method described by Garber and Houstan (Garber R. H., and B. R. Houston, Phytopathology, 49: 449-450 (1959)). In brief, three 5 mm diameter plugs were taken from the peripheral mycelial growth from each plate and placed in a fresh PDA plate. Following incubation at room temperature for 7 days, observations were recorded for new mycelial growth (fungistatic) or no mycelial growth (fungicidal). As control, peripheral mycelial plugs from soybean oil amended PDA plates were checked for fresh mycelial growth in fresh PDA plates.
# Rhizoctonia solani [4] = assay: Filter disk fumigation method, mycelial growth inhibition on PDA; type: cell-based, Rhizoctonia solani AG-4, isolate Rs 23A; details: for Fumig1 % inhibition: fumigation experiment 1; for Fumig2 % inhibition: fumigation experiment 2
# Description: as §1
# In the second protocol, the chemical was kept not in direct contact with the fungus and we hypothesized that the plant extract will most likely influence the growth of the pathogen by fumigation action. In this approach, three sterile 15 mm filter paper (Whatman International Ltd, Maidstone, UK) disks were placed on the edge of each of three plates on the PDA. Each disk was impregnated in the center with various amounts (5-50 ul/disk) of the test solution/suspension. For negative control, only soybean oil was placed in the filter disk. […] The average radial growth was calculated and the experiment was repeated one more time. Percent growth inhibition was calculated as reported for poison bed assay.
# cucumber seeds = assay: Greenhouse assay of seed germination and phytotoxicity, soil treated with plant extract alone; details: cucumber, in vivo, 0.3 % of PE in soil (3000 ppm)
# Description: Soil treatment: For each treatment, 300 g of dry greenhouse soli (Pro-mix, Premier Horticulture LTD, Red Hill, Pa.) was thoroughly mixed with Rhizoctonia inoculum and incubated for 15 days as described above. […] The infested soil treated with only the carrier solution served as an untreated control. Following the treatment, the soil was thoroughly stirred to mix the contents and incubated in a double polythene bag closed tightly in the dark at room temperature for four days for fumigation to occur. Following the incubation, the bag was opened to allow as much PE to dissipate as possible. This was done by sprinkling the surface soil with sterile water every other day, and stirring the soil once every day for seven days. For assay of effect on seed germination and phytotoxicity of the plant extracts, soil was treated with plant extract formulations alone.
# Greenhouse studies: Treated soil from each treatment was distributed to 4-inch plastic pots into which 12 seeds of cucumbers (95-100% germination) were sown and lightly watered to keep soil moist. The treatments were color coded and pots were randomized across treatment. All plants were kept in a greenhouse between 20° C. (night) to 26° C. (day) with 14 h of light. There were three pots per treatment in each experiment, and the experiment was repeated three times. As positive control, a broad spectrum popular soil fungicide Banrot® 40 WP (The Scotts Company, Ohio) was used following manufacturer's recommendation to control the disease. Total number of seedlings without any sign of damping off in each pot was recorded and percentage of disease suppression were calculated four weeks after sowing cucumber seeds.
smiles,measurement,setting,value
Cc1ccc(C(C)C)c(O)c1 [Thymol],PoisonB1 % inhibition,Rhizoctonia solani [1]; amount oil 15 μL/20 mL plate,100%
same,PoisonB2 % inhibition,Rhizoctonia solani [1]; amount oil 15 μL/20 mL plate,42%
same,PoisonB1 % inhibition,Rhizoctonia solani [1]; amount oil 30 μL/20 mL plate,100%
same,PoisonB2 % inhibition,Rhizoctonia solani [1]; amount oil 30 μL/20 mL plate,100%
same,PoisonB1 % inhibition,Rhizoctonia solani [1]; amount oil 45 μL/20 mL plate,100%
same,PoisonB2 % inhibition,Rhizoctonia solani [1]; amount oil 45 μL/20 mL plate,100%
same,PoisonB1 % inhibition,Rhizoctonia solani [1]; amount oil 60 μL/20 mL plate,100%
same,PoisonB2 % inhibition,Rhizoctonia solani [1]; amount oil 60 μL/20 mL plate,100%
same,PoisonB1 % inhibition,Rhizoctonia solani [1]; amount oil 75 μL/20 mL plate,100%
same,PoisonB2 % inhibition,Rhizoctonia solani [1]; amount oil 75 μL/20 mL plate,100%
same,PoisonB1 % inhibition,Rhizoctonia solani [1]; amount oil 150 μL/20 mL plate,100%
same,PoisonB2 % inhibition,Rhizoctonia solani [1]; amount oil 150 μL/20 mL plate,100%
same,% Disease suppression (+ PE + R. solani),"Rhizoctonia solani [2]; cucumber damping off, soil amendment at 0.3% (v/w), four weeks after sowing",27.75%
same,Avg. seed Germination (+ PE + R. solani),"Rhizoctonia solani [2]; cucumber, 12 seeds sown per pot, infested soil amended with 0.3% PE",3.33
same,Effect (fumigation),Rhizoctonia solani [3]; amount oil 15 μL/20 mL plate,S
same,"Effect (poison bed, contact action)",Rhizoctonia solani [3]; amount oil 15 μL/20 mL plate,S
same,Effect (fumigation),Rhizoctonia solani [3]; amount oil 30 μL/20 mL plate,S
same,"Effect (poison bed, contact action)",Rhizoctonia solani [3]; amount oil 30 μL/20 mL plate,S
same,Effect (fumigation),Rhizoctonia solani [3]; amount oil 45 μL/20 mL plate,S
same,"Effect (poison bed, contact action)",Rhizoctonia solani [3]; amount oil 45 μL/20 mL plate,S
same,Effect (fumigation),Rhizoctonia solani [3]; amount oil 60 μL/20 mL plate,S
same,"Effect (poison bed, contact action)",Rhizoctonia solani [3]; amount oil 60 μL/20 mL plate,S
same,Effect (fumigation),Rhizoctonia solani [3]; amount oil 75 μL/20 mL plate,S
same,"Effect (poison bed, contact action)",Rhizoctonia solani [3]; amount oil 75 μL/20 mL plate,S
same,Effect (fumigation),Rhizoctonia solani [3]; amount oil 150 μL/20 mL plate,S
same,"Effect (poison bed, contact action)",Rhizoctonia solani [3]; amount oil 150 μL/20 mL plate,S
same,Fungicidal vs fungistatic nature,"Rhizoctonia solani [3]; in vitro, fumigation and contact action",fungistatic
same,Fumig1 % inhibition,Rhizoctonia solani [4]; amount oil 15 μL/20 mL plate,77%
same,Fumig2 % inhibition,Rhizoctonia solani [4]; amount oil 15 μL/20 mL plate,91%
same,Fumig1 % inhibition,Rhizoctonia solani [4]; amount oil 30 μL/20 mL plate,86%
same,Fumig2 % inhibition,Rhizoctonia solani [4]; amount oil 30 μL/20 mL plate,93%
same,Fumig1 % inhibition,Rhizoctonia solani [4]; amount oil 45 μL/20 mL plate,90%
same,Fumig2 % inhibition,Rhizoctonia solani [4]; amount oil 45 μL/20 mL plate,94%
same,Fumig1 % inhibition,Rhizoctonia solani [4]; amount oil 60 μL/20 mL plate,89%
same,Fumig1 % inhibition,Rhizoctonia solani [4]; amount oil 75 μL/20 mL plate,93%
same,Fumig1 % inhibition,Rhizoctonia solani [4]; amount oil 150 μL/20 mL plate,96%
same,Avg. seed germination (+ PE only),cucumber seeds,8.00
